The text below walks through data of patent US5039684A, “Tetrazole amide derivatives of heterocyclic alkenyl acid and their use as antiallergic substances” (Valeas S. p. A., priority 1989, dated 1991).

Molecules are shown by their SMILES. Where two headings read alike, the source gives them in different places.

For data set [1], the system named is passive cutaneous anaphylaxis. Nature of the data set: PCA test on the rat, intravenous administration just before challenge with antigen. The data set is classed as in vivo, rat (male Sprague Dawley). The settings on record: immediately before challenge; for inhibition (%) / ED50 (conf. lim) P = 0.05: i.v. The protocol: (§1) The serum, obtained from rats actively sensitized with ovalbumin (antigen) and suitably diluted, was injected intradermically into the shaven back of male Sprague Dawley rats (2 wheals per rat).
(§2) The rats were treated intravenously after 24 hours with a solution of ovalbumin and Evans blue. Thirty minutes later they were killed and the diameter and intensity of the blue ring formed at the site of the intradermic injection were measured.
(§3) For each treated group (5 per group) the % inhibition was then calculated with respect to the control group.
The pharmacological screening was effected by administering the compounds of the present invention intravenously and orally.
(§4) For intravenous administration (2 ml/kg), those compounds in which R1 =H (see formula I) were dissolved in an aqueous 1% NaHCO3 solution whereas for oral administration (4 ml/Kg) they were either suspended in 0.5% carboxymethylcellulose or dissolved in an aqueous 3% NaHCO3 solution.

For data set [2] the following is noted: in vivo; cited from earlier work.
For data set [3], the system named is passive cutaneous anaphylaxis. The settings on record: oral, cited from earlier work.
Data set [4] relates to passive cutaneous anaphylaxis. As to the kind of experiment: PCA test on the rat, time response curve after oral administration. Format: in vivo, rat (male Sprague Dawley). Particulars: oral; for inhibition in vivo at 1 mg/kg / inhibition in vivo at 100 mg/kg: Rattus norvegicus; for inhibition in vivo at 1 mg/kg: 1 mg/kg/os; for inhibition in vivo at 100 mg/kg: 100 mg/kg/os. The protocol: as §1, §2, §3, §4

Data set [5] is described as follows: Acute toxicity in the mouse, oral administration. Format: in vivo. Particulars: mouse, in vivo, po, 1000 mg/kg, oral, 1000 mg/kg/os; read-out: mortality (%EAD). The protocol:
(§5) Acute toxicity was evaluated in the mouse by administering the compounds orally at scalar doses to a maximum of 1000 mg/kg to evaluate the 50% lethal dose (LD50). The compounds were administered in carboxymethylcellulose (0.5%) in a volume of […] to male mice (Swiss stock) of average weight 20 g.

A further data set deals with mouse. Nature of the data set: Acute toxicity in the mouse, oral administration. The data set is classed as in vivo. The settings on record: oral, 1000 mg/kg/os, 8 treated. The protocol: as §5
Data set [6] has as its system passive cutaneous anaphylaxis. Nature of the data set: PCA test on the rat, oral administration before challenge with antigen. The data set is classed as in vivo, rat (male Sprague Dawley). The settings on record: for ED50: Table 2, oral administration, read-out: ED50 (conf. lim) P = 0.05; for oral bioavailability (in words): from ED50 os / ED50 iv comparison. The protocol:
The serum, obtained from rats actively sensitized with ovalbumin (antigen) and suitably diluted, was injected intradermically into the shaven back of male Sprague Dawley rats (2 wheals per rat). The rats were treated intravenously after 24 hours with a solution of ovalbumin and Evans blue. Thirty minutes later they were killed and the diameter and intensity of the blue ring formed at the site of the intradermic injection were measured. […] The pharmacological screening was effected by administering the compounds of the present invention intravenously and orally. For intravenous administration (2 ml/kg), those compounds in which R1 =H (see formula I) were dissolved in an aqueous 1% NaHCO3 solution whereas for oral administration (4 ml/Kg) they were either suspended in 0.5% carboxymethylcellulose or dissolved in an aqueous 3% NaHCO3 solution.

The mark [7] stands for this setting: 5 min, 5 minutes before challenge.
Where [8] appears, read: 0.25 h, 15 minutes before challenge.
[9] abbreviates: 0.5 h, 30 minutes before challenge.
[10] abbreviates: 1 h, 60 minutes before challenge.
Setting [11] is: 2 h, 120 minutes before challenge.

As a reminder, the mortality is the percentage killed.

For `O=C([O-])c1cc(=O)c2c(OCC(O)COc3cccc4oc(C(=O)[O-])cc(=O)c34)cccc2o1.[Na+].[Na+]` [DSCG, Disodium chromoglycate, reference compound], the “inhibition (%)” value was found to be 28.1% in data set [1] (0.1 mg/kg), 33.6% in data set [1] (0.3 mg/kg), 70.0% in data set [1] (1 mg/kg) and 100% in data set [1] (3 mg/kg). Further, the “ED50 (conf. lim) P = 0.05” value in data set [1] is listed as 0.52 mg/kg/iv; in data set [1] (listed as D.S.C.G.) it was 0.52 (0.47-0.83) mg/kg/iv. Moreover, the “absorption at the gastro-enteric level” value in data set [2] is on record as “not being absorbed at the gastro-enteric level”.
Consider `Cc1cccc(C(=O)Nc2nn[nH]n2)n1` [TA 57-07, 6-methyl-N-(1H-tetrazol-5-yl)-2-pyridinecarboxyamide, reference compound], for which the ED50 in data set [3] (5 minutes before challenge, Tsuzurahara et al.) was 0.9 (0.6-1.6) mg/kg/os; in data set [1] (Rattus norvegicus, iv, read-out: ED50 (conf. lim) P = 0.05) it was 0.059 mg/kg; in data set [6] (Rattus norvegicus, po, 5 min, 5 minutes before challenge), 0.93 mg/kg. The inhibition in vivo at 1 mg/kg in data set [4] (setting [7]) worked out at 86.8%; in data set [4] (setting [8]), 43.7%; in data set [4] (setting [9]), 37.6%; in data set [4] (setting [10]), 17.3%; in data set [4] (setting [11]) it was 4.1%; in data set [6] (Rattus norvegicus, po, 1 mg/kg, 5 minutes before challenge), 57.7%. In addition, the mortality in data set [5] was found to be 50%. In addition, the “No. (dead)” value in the data set with mouse is reported as 4. In data set [6] (Rattus norvegicus, po, 0.3 mg/kg, 5 minutes before challenge), this compound gave an inhibition in vivo at 0.3 mg/kg of 12.7%. Also, the inhibition in vivo at 3 mg/kg in data set [6] (Rattus norvegicus, po, 3 mg/kg, 5 minutes before challenge, read-out: inhibition (%)) is 82.5%. For the same compound, the “oral bioavailability (in words)” value in data set [6] is “less bioavailable when administered orally than the compounds of the present invention”. The “ED50 OS/ED50 iv” value in data set [6] (oral 5 minutes before challenge / i.v. immediately before challenge) turned out to be 15.76.
As for `COc1ccc(/C=C/C(=O)Nc2ccccc2C(=O)O)cc1OC` [Tranilast, N-(3', 4'-dimethoxycinnamoyl) anthranylic acid, reference compound], the ED50 is 150 (88, 3-255) mg/kg/os in data set [3] (2 hours before challenge, Koda et al.) and 115 mg/kg in data set [6] (Rattus norvegicus, po, 0.25 h, 15 minutes before challenge). In addition, the inhibition in vivo at 100 mg/kg in data set [4] (setting [7]) worked out at 17.9%; in data set [4] (setting [8]), 37.4%; in data set [4] (setting [9]), 20.5%; in data set [4] (setting [10]) it was 20.5%; in data set [4] (setting [11]), 13.7%. Also, in data set [4], the “time of administration before challenge giving the peak (maximum) effect” value came out at 15 min. Further, the mortality in data set [5] worked out at 87.5%. The “No. (dead)” value with mouse worked out at 7. For the same compound, in data set [6], the “oral bioavailability (in words)” value is given as “less bioavailable when administered orally than the compounds of the present invention”. In addition, in data set [6] (oral), the “activity compared with Tranilast / compounds of the invention (in words)” value is “less active by at least one order of magnitude”.
